Here are results for 27 compounds from patent US9115147B2, “Tricyclic derivatives and their pharmaceutical use and compositions” (Cephalon, Inc., priority 2009, dated 2015).

Broadly, the pKi is the Ki on a negative log10 scale, so that one unit is a factor of ten.

This assay has as its target T1, human 5-HT6 receptor (Homo sapiens, UniProt P50406).
T1 construct: host or cells: CHO-K1 cells, stably transfected; membranes prepared in house
Briefly: Human 5-HT6 Receptor Binding Assay ([3H]LSD, scintillation beads). The conditions noted are these: membranes of CHO-K1 cells with recombinant human 5-HT6 receptor, 4 nM [3H]LSD. The procedure: Human 5-HT6 Receptor Binding Assay
Membranes were prepared from CHO-K1 cells stably transfected with the human 5-HT6 receptor (Euroscreen; ES-316-C). The cells were grown in Gibco Advanced DMEM-F12 (Cat#12634010) containing 2% dialyzed FBS (Hyclone Cat#SH30079.03). The cells were harvested in phosphate buffered saline (PBS) containing 0.1 mM EDTA and pelleted by centrifugation (1000×g), the supernatant was discarded and the pellets were stored at −80° C. prior to membrane preparation. Membranes were prepared as previously described (J Bio Chem. 1992, 267 (14) 9844-51). Briefly, frozen cell pellet was resuspended in a lysis buffer containing 5 mM Tris-HCl (pH 7.5), 5 mM EDTA and 1 complete EDTA-free protease inhibitor tablet (Roche Applied Science, Indianapolis, Ind.) per 50 mL buffer, and homogenized with a tissue homogenizer. The cell lysate was then centrifuged at 40,000×g for 30 min at 4° C. to collect the membranes. The membrane pellets were washed in membrane buffer (50 mM Tris-HCl (pH 7.5), 0.6 mM EDTA, 5 mM MgCl2, 1 complete EDTA-free protease inhibitor tablet per 50 mL buffer) using a tissue homogenizer. The membranes were centrifuged at 40,000×g for 30 min at 4° C. and the pellets were resuspended in membrane buffer containing 250 mM sucrose, and protein concentration was determined using the Coomassie Plus kit (Pierce Biotechnology, Rockford, Ill.).
Membranes prepared from cells expressing recombinant human 5-HT6 receptor (h5-HT6) were resuspended in assay buffer containing 50 mM Tris HCl, (pH7.4), 4 mM CaCl2, 10 μg/mL saponin, and 0.1% (w/v) ascorbic acid. Membranes were preincubated using 1.75 μg membrane protein and 0.25 mg FlashBlue scintillation beads (PerkinElmer catalogue #FB001) per well at 4° C. for 30 min. […] Test compounds or assay controls for total and non-specific binding were diluted in DMSO as 100× solutions and serially diluted by half log concentrations on a Perkin Elmer JANUS Automated Workstation. Serotonin (10 μM final concentration) was used to determine non-specific binding in the assay. Plates were read using the Microbeta Trilux 1450 LSC and luminescence counter. Data were analyzed by nonlinear […] using the dose-response equation (variable slope) to calculate IC50 in XLfit4 (ID Business Solutions Inc.): y=(Bottom+((Top−Bottom)/(1+((IC50/x)^Hill slope))))
Ki value was then calculated according to the Cheng-Prusoff method using the equation below (Cheng and Prusoff, 1973): Ki, app=IC50/(1+([radioligand]/Kd))

Setting [1] is: Cheng-Prusoff, read-out: Human 5-HT6 Ki app.
Setting [2] is: Human 5-HT6 Ki (nM), actual data.
The mark [3] stands for this setting: Human 5-HT6 Ki app (nM), Cheng-Prusoff.

pKi: −log10 of the molar value. Read-outs that look alike come from different tables or passages of the source.

T1 sequence (P50406 whole entry): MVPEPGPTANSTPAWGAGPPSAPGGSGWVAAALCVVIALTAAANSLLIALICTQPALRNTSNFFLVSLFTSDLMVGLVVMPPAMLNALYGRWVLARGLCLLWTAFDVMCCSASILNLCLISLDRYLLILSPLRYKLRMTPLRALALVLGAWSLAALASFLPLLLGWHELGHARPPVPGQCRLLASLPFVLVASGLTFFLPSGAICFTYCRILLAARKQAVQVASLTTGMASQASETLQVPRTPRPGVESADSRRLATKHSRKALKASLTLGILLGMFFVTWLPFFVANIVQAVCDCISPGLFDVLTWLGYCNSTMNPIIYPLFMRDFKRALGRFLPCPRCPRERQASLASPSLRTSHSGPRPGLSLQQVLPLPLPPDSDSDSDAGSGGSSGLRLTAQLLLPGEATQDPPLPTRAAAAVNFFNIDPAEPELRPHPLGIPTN

Turning to `O=S(=O)(c1ccccc1)c1ccc2c(c1)OCC1C2CCN1C1CCC1` (single isomer, unassigned) [Example 60, 3-cyclobutyl-7-(phenylsulfonyl)-1,2,3,3a,4,9b-hexahydrochromeno[3,4-b]pyrrole], the negative-log Ki (pKi) under setting [1] was below 6.00.
Same read-out and setting: in the case of `CC(C)CCCN1CCC2c3ccc(S(=O)(=O)c4ccccc4)cc3OCC21` (single isomer, unassigned) [Example 94, 3-(4-methylpentyl)-7-(phenylsulfonyl)-1,2,3,3a,4,9b-hexahydrochromeno[3,4-b]pyrrole] it was above 6.30; in that of `O=S(=O)(c1cncc(C(F)(F)F)c1)c1ccc2c(c1)OCC1NCCC21` (single isomer, unassigned) [Example 52, 7-{[5-(trifluoromethyl)pyridin-3-yl]sulfonyl}-1,2,3,3a,4,9b-hexahydrochromeno[3,4-b]pyrrole], 6.00 to 6.30.
On the same count and under the same terms, the value for `O=S(=O)(c1ccc2c(c1)OCC1NCCC21)c1cccc2ccccc12` (single isomer, unassigned) [Example 20, 7-(naphthalen-1-ylsulfonyl)-1,2,3,3a,4,9b-hexahydrochromeno[3,4-b]pyrrole] was above 6.30; that for `O=S(=O)(c1ccccc1)c1ccc2c(c1)OCC1C2CCN1Cc1ccccc1` (single isomer, unassigned) [Example 102, 3-benzyl-7-(phenylsulfonyl)-1,2,3,3a,4,9b-hexahydrochromeno[3,4-b]pyrrole] was below 6.00.
In the case of `Cc1cccc(Sc2ccc3c(c2)OCC2NCCC32)n1` (single isomer, unassigned) [Example 21, 7-[(6-methylpyridin-2-yl)sulfanyl]-1,2,3,3a,4,9b-hexahydrochromeno[3,4-b]pyrrole], under setting [1], the pKi was below 6.00.
As for `O=S(=O)(c1cncc(Br)c1)c1ccc2c(c1)OCC1NCCC21` (single isomer, unassigned) [Example 31, 7-[(5-bromopyridin-3-yl)sulfonyl]-1,2,3,3a,4,9b-hexahydrochromeno[3,4-b]pyrrole], where the note is “read-out: Human 5-HT6 Ki app, Cheng-Prusoff”, the pKi is above 6.30.
With `O=S(=O)(c1ccc(F)cc1)c1ccc2c(c1)OCC1NCCC21` (single isomer, unassigned) [Example 13, 7-[(4-fluorophenyl)sulfonyl]-1,2,3,3a,4,9b-hexahydrochromeno[3,4-b]pyrrole], under setting [1], the pKi is above 6.30.
`CC(C)N1CCC2c3ccc(S(=O)(=O)c4ccccc4)cc3OCC21` (single isomer, unassigned) [Example 58, 7-(phenylsulfonyl)-3-(propan-2-yl)-1,2,3,3a,4,9b-hexahydrochromeno[3,4-b]pyrrole]: under setting [1], the negative-log Ki (pKi) was below 6.00.
Same read-out and setting: the value for `O=S(=O)(c1ccccc1)c1ccc2c(c1)OCC1C2CCN1CCc1ccccc1` (single isomer, unassigned) [Example 96, 3-(2-phenylethyl)-7-(phenylsulfonyl)-1,2,3,3a,4,9b-hexahydrochromeno[3,4-b]pyrrole] was above 6.30.
In the case of `Cc1cccc([S+]([O-])c2ccc3c(c2)OCC2NCCC32)n1` (single isomer, unassigned) [Example 22, 7-[(6-methylpyridin-2-yl)sulfinyl]-1,2,3,3a,4,9b-hexahydrochromeno[3,4-b]pyrrole], the Ki under setting [2] turned out to be 51.5 nM and the Ki under setting [3] is below 500 nM.
Turning to `O=S(=O)(c1ccccc1)c1ccc2c(c1)OCC1C2CCN1CCc1ccccc1` (single isomer, unassigned) [Example 103, 3-(2-phenylethyl)-7-(phenylsulfonyl)-1,2,3,3a,4,9b-hexahydrochromeno[3,4-b]pyrrole], the pKi under setting [1] was below 6.00.
On the same count and under the same terms, the value for `O=S(=O)(c1ccccc1)c1ccc2c(c1)OCC1C2CCN1CC1CCCC1` (single isomer, unassigned) [Example 70, 3-(cyclopentylmethyl)-7-(phenylsulfonyl)-1,2,3,3a,4,9b-hexahydrochromeno[3,4-b]pyrrole] was above 6.30; that for `O=S(=O)(c1ccc2c(c1)OCC1NCCC21)c1cccc(F)c1F` (single isomer, unassigned) [Example 41, 7-[(2,3-difluorophenyl)sulfonyl]-1,2,3,3a,4,9b-hexahydrochromeno[3,4-b]pyrrole] was above 6.30; that for `O=S(=O)(c1ccccc1)c1ccc2c(c1)OCC1C2CCN1CCCO` (single isomer, unassigned) [Example 100, 3-[7-(phenylsulfonyl)-1,3a,4,9b-tetrahydrochromeno[3,4-b]pyrrol-3(2H)-yl]propan-1-ol] was above 6.30.
On the same count and under the same terms, the value for `COc1cc(F)cc(S(=O)(=O)c2ccc3c(c2)OCC2NCCC32)c1` (racemic) [Example 109, 7-[(3-fluoro-5-methoxyphenyl)sulfonyl]-1,2,3,3a,4,9b-hexahydrochromeno[3,4-b]pyrrole] was above 6.30.
On to `O=S(=O)(c1ccccc1)c1ccc2c(c1)OCC1C2CCN1C1CCOCC1` (single isomer, unassigned) [Example 68, 7-(phenylsulfonyl)-3-(tetrahydro-2H-pyran-4-yl)-1,2,3,3a,4,9b-hexahydrochromeno[3,4-b]pyrrole], for which the pKi under setting [1] is above 6.30.
Consider `CC(C)CN1CCC2c3ccc(S(=O)(=O)c4ccccc4)cc3OCC21` (single isomer, unassigned) [Example 98, 3-(2-methylpropyl)-7-(phenylsulfonyl)-1,2,3,3a,4,9b-hexahydrochromeno[3,4-b]pyrrole], for which the pKi under setting [1] was below 6.00.
`O=S(=O)(c1ccccc1)c1ccc2c(c1)OCC1NCCC21` (racemic) [Example 104, 7-(phenylsulfonyl)-1,2,3,3a,4,9b-hexahydrochromeno[3,4-b]pyrrole]: the pKi by setting is: (actual data, read-out: Human 5-HT6 Ki) 8.60; under setting [1], above 6.30.
For the compound `O=S(=O)(c1cccc(F)c1)c1ccc2c(c1)OCC1NCCC21` (single isomer, unassigned) [Example 10, 7-[(3-fluorophenyl)sulfonyl]-1,2,3,3a,4,9b-hexahydrochromeno[3,4-b]pyrrole], the pKi under setting [1] was above 6.30.
Turning to `O=S(=O)(c1ccccc1)c1ccc2c(c1)OCC1C2CCN1C1CCOCC1` (single isomer, unassigned) [Example 69, 7-(phenylsulfonyl)-3-(tetrahydro-2H-pyran-4-yl)-1,2,3,3a,4,9b-hexahydrochromeno[3,4-b]pyrrole], the pKi under setting [1] is below 6.00.
With `O=S(=O)(c1ccccc1)c1ccc2c(c1)OCC1C2CCN1C1CCCCC1` (single isomer, unassigned) [Example 64, 3-cyclohexyl-7-(phenylsulfonyl)-1,2,3,3a,4,9b-hexahydrochromeno[3,4-b]pyrrole], the pKi under setting [1] was below 6.00.
Still for that read-out and setting: in the case of `[O-][S+](c1ccccc1)c1ccc2c(c1)OCC1NCCC21` (racemic) [Example 106, 7-(phenylsulfinyl)-1,2,3,3a,4,9b-hexahydrochromeno[3,4-b]pyrrole] it was above 6.30; in that of `O=S(=O)(c1cccc(Cl)c1)c1ccc2c(c1)OCC1NCCC21` (single isomer, unassigned) [Example 11, 7-[(3-chlorophenyl)sulfonyl]-1,2,3,3a,4,9b-hexahydrochromeno[3,4-b]pyrrole], above 6.30.
Consider `COc1cncc(S(=O)(=O)c2ccc3c(c2)OCC2NCCC32)c1` (racemic) [Example 110, 7-[(5-methoxypyridin-3-yl)sulfonyl]-1,2,3,3a,4,9b-hexahydrochromeno[3,4-b]pyrrole], for which the Ki was 98.4 nM under setting [2] and below 500 nM under setting [3].
Consider `O=S(=O)(c1ccccc1)c1ccc2c(c1)C1CCN(C3CCC3)C1CO2` (single isomer, unassigned) [Example 88, 3-cyclobutyl-8-(phenylsulfonyl)-1,2,3,3a,4,9b-hexahydrochromeno[3,4-b]pyrrole], for which the pKi under setting [1] was above 6.30.
Still for that read-out and setting: the value for `O=S(=O)(c1ccccc1)c1ccc2c(c1)C1CCN(C3CCC3)C1CO2` (single isomer, unassigned) [Example 89, 3-cyclobutyl-8-(phenylsulfonyl)-1,2,3,3a,4,9b-hexahydrochromeno[3,4-b]pyrrole] was above 6.30.
